Measurements taken from paper PMC4136709 (ACS Chemical Biology, 2014).

Tests used:
[1] = target: T1, PhaCRe (Cupriavidus necator, UniProt P23608); assay: discontinuous DTNB assay of CoA release; format: biochemical
T1 sequence (P23608 1-589): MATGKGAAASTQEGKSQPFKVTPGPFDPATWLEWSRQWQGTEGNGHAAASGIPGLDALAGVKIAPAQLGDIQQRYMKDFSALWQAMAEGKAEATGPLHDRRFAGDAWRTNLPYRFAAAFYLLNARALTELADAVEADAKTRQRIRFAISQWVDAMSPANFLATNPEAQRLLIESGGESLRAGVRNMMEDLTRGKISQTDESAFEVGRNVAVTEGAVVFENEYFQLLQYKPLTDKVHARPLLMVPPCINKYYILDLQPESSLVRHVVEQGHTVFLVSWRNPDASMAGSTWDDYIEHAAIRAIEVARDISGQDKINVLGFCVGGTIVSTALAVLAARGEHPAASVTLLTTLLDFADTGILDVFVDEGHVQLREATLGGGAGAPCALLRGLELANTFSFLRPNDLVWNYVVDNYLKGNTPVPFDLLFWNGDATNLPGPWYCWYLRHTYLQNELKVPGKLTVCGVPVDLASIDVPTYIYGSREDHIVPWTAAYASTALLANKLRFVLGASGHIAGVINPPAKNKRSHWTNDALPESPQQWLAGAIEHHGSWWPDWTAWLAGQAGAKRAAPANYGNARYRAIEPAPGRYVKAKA

[2] = target: T2, PhaECAv (Allochromatium vinosum, UniProt P45370); assay: discontinuous DTNB assay of CoA release; format: biochemical
T2 sequence (P45370 1-355): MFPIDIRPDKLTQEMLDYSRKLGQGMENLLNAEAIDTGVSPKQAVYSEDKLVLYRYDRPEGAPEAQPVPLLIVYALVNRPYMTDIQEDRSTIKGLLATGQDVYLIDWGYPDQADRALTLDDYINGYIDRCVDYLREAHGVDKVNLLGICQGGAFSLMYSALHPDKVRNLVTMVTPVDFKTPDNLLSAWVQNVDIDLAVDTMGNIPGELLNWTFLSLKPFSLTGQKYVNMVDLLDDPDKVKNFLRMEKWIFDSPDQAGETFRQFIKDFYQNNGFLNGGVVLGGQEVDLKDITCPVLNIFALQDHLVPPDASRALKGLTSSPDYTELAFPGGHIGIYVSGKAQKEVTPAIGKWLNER
T2 sequence (P45372 1-357 partner): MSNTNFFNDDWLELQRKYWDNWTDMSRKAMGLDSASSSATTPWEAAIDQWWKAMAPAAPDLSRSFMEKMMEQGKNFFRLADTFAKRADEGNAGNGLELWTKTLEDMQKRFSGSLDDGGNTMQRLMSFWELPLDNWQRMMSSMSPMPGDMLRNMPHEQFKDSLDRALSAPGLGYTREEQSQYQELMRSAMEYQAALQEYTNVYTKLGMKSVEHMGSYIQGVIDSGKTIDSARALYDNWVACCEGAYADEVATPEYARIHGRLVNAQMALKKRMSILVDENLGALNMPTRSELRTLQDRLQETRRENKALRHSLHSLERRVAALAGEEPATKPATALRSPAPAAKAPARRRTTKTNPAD

Ki [1]: 14.1 µM
Ki [2]: 40.1 µM
Structure (SMILES): C[C@@H](O)CC(=O)CCCNC(=O)CCNC(=O)[C@H](O)C(C)(C)COP(=O)(O)OP(=O)(O)OC[C@H]1O[C@@H](n2cnc3c(N)ncnc32)[C@H](O)[C@@H]1OP(=O)(O)O [compound 1, HBCH2CoA]
